What is called IC50 is the midpoint of a concentration-inhibition curve. As a reminder, the Tmax is the time at which the peak concentration occurs. The term Cmax denotes the maximum level reached in the sampled fluid or tissue.

The structures appear in SMILES notation. Read-outs that look alike come from different tables or passages of the source. Where only a bound is given, the exact number is not on record here.

The subject of data set [1] is NFF, neonatal foreskin fibroblasts. Nature of the data set: Cell survival assay (clonogenic survival, SRB), normal cells. In kind it is cell-based, human. In outline: (§1)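 Cells (5×10^3/well, RPMI 1640 with 10% FCS) treated 24 h with compound at 0.01-10 μg/mL, then washed and grown 72 h drug-free at 37 °C, 5% CO2. Survival read by SRB staining after methylated-spirit fixation, absorbance 564 nm.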

Data set [2] has as its system MM96L melanoma cells. The data set can be described thus: Cell survival assay (clonogenic survival, SRB). The data set is classed as cell-based, human. In a few lines:
as §1

The test system of data set [3] is CI-80-13S ovarian cancer cells. Nature of the data set: Cell survival assay (SRB). The data set is classed as cell-based, human. Particulars: Table 10, standard deviations in parentheses, read-out: Cell line IC50 (μM) C18013S. In outline:
(§2)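 Cells in RPMI 1640 with 10% FCS at 37 °C, 5% CO2, seeded at 5×10^3 cells/well and adhered overnight. Compound exposure for 24 h, then washout and 72 h further growth in fresh medium. Survival read by SRB staining of ethanol-fixed cells, absorbance at 564 nm.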

Data set [4] relates to DO4 melanoma cells. Nature of the data set: Cell survival assay (SRB). In kind it is cell-based, human. Particulars: Table 10, standard deviations in parentheses, read-out: Cell line IC50 (μM) DO4. In a few lines:
as §2

Data set [5] has as its system DU145 prostate cancer cells. Nature of the data set: Cell survival assay (SRB). The data set is classed as cell-based, human. Particulars: Table 10, standard deviations in parentheses, read-out: Cell line IC50 (μM) DU145. In outline: as §2
In data set [6] the test system is JAM ovarian cancer cells. The data set can be described thus: Cell survival assay (SRB). In kind it is cell-based, human. Particulars: Table 10, standard deviations in parentheses, read-out: Cell line IC50 (μM) JAM. In a few lines: as §2
Data set [7] relates to MCF-7 breast cancer cells. The data set can be described thus: Cell survival assay (SRB). The data set is classed as cell-based, human. Particulars: Table 10, standard deviations in parentheses, read-out: Cell line IC50 (μM) MCF7. In a few lines:
as §2

The test system of data set [8] is SkMel28 melanoma cells. The data set can be described thus: Cell survival assay (SRB). The data set is classed as cell-based, human. Particulars: Table 10, standard deviations in parentheses, read-out: Cell line IC50 (μM) SkMel. In outline: as §2
In data set [9] the test system is p21^WAF1/Cip1 (CDKN1A). Nature of the data set: Induction of p21 expression (semi-quantitative RT-PCR) in MM96L cells. The data set is classed as cell-based, human. Particulars: MM96L melanoma cells, 10 μg/ml, after 16 hrs treatment. The text has this:
Induction of p21 Expression. It has been postulated that histone acetylation is associated with activation of gene transcription. […] Possibly the best characterised gene to be induced following exposure to different HDAC inhibitors is that of the cyclin-dependent kinase inhibitor p21^WAF1/Cip1, which blocks cyclin-dependent kinase activity thereby causing cell-cycle arrest in G1. HDAC inhibitors are thought to act directly on the CDKN1A promoter rather than an upstream target. The HDAC inhibitor SAHA induces accumulation of acetylated histones in the chromatin associated with the CDKN1A gene, and this correlates with the observed increase in transcription. […]
Cell Treatment and Total RNA Isolation. […] RNA was analysed for sufficient quality by formamide agarose gel electrophoresis, and quantified by spectrophotometry.
p21 Expression. The semi-quantitative analysis of mRNA expression of p21^WAF1/Cip1 was carried out by RT-PCR. […] Products were analysed by agarose gel electrophoresis, and visualised on a UV light box. Product intensity was determined to increase linearly with number of cycles and amount of mRNA used, by densitometric analysis using ImageQuaNT 4.2 software (Molecular Dynamics, Sunnyvale, Calif.). Quantitation of p21^WAF1/Cip1 induction was also performed by densitometric analysis using ImageQuaNT 4.2 software following normalisation to GAPDH product intensity.

The nature of data set [10]: Oral bioavailability, plasma concentration after oral and intravenous administration. In kind it is in vivo, Wistar rats. Particulars: 5 mg/kg in 4:1 olive oil:DMSO, three rats starved prior to dosing. How it is done:
FIG. 7. Oral Bioavailability. Time dependent plasma concentration of compound of example 24 after oral (top) and intravenous (bottom) administration at 5 mg/kg to each of three Wistar rats.
Compounds of the invention were examined to see whether this new series had the expected favorable properties for oral delivery. […] Compound 24 (Log D7.0 2.7) was administered intravenously and orally to rats. […] Neither vehicle nor fasting had any significant effects on these parameters.

On to `O=C(CCCSC[C@H](NC(=O)c1ccc(Br)cc1)C(=O)NCc1ccccc1)NO` [Example 24], for which the 50% inhibitory concentration (IC50) turned out to be 0.83 µM in [1] (Table 10, standard deviations in parentheses, read-out: Cell line IC50 (μM) NFF); 0.2 µM in [2] (Table 10, standard deviations in parentheses, read-out: Cell line IC50 (μM) MM96L); 1.5 µM in data set [3]; 3.5 µM in [4]; 3.8 µM in data set [5]; 2 µM in [6]. For the same compound, the figures for the IC50 in data set [7] and in [8] were 1.16 µM and 5.7 µM, respectively. In data set [9], the “Induction of mRNA for p21^WAF1/Cip1” value is listed as “Induction of mRNA for p21^WAF1/Cip1 was seen”. Moreover, the Tmax in data set [10] is listed as ~15 min. Further, in [10], the “time for which high serum levels of drug were maintained” value is > 4 h. In data set [10] (serum, preliminary study), the Cmax is ~6000 ng/mL.
`CN(C)c1ccc(C(=O)N[C@@H](CSCCCC(=O)NO)C(=O)NC2CCCc3ccccc32)cc1` (stereo partly shown) [Example 67]: the IC50 was 2.2 ± 0.2 µM in [1] (Homo sapiens, Fibroblast, 24 h, Table 6, 24 hours with compound, further growth, SRB, read-out: IC50 (μM) NFF); 2.2 µM in data set [1] (Homo sapiens, Fibroblast, Table 10, standard deviations in parentheses, read-out: Cell line IC50 (μM) NFF); 0.2 ± 0.1 µM in data set [2] (Homo sapiens, MM96L, 24 h, Table 6, 24 hours with compound, further growth, SRB, read-out: IC50 (μM) MM96L); 0.2 µM in data set [2] (Homo sapiens, MM96L, Table 10, standard deviations in parentheses, read-out: Cell line IC50 (μM) MM96L); ≤ 0.5 µM in data set [2] (Homo sapiens, MM96L, most preferred compounds, exemplary examples, read-out: potency of IC50 against the MM96 melanoma cells); 1.24 µM in [3] (Homo sapiens, C180-13S). The IC50 turned out to be 2.73 µM in data set [4] (Homo sapiens, DO4); 1.06 µM in [5] (Homo sapiens, DU-145); 1.47 µM in data set [6] (Homo sapiens); 0.96 µM in data set [7] (Homo sapiens, MCF7); 2.59 µM in data set [8] (Homo sapiens, SK-MEL-28). In data set [2] (Table 6, IC50 (NFF)/IC50 (MM96L)), this compound registered a Selectivity of 11. Also, the “Induction of mRNA for p21^WAF1/Cip1” value in [9] is “Induction of mRNA for p21^WAF1/Cip1 was seen”.

These data come from patent publication US20080004290A1, “Anti-Cancer Agents” (THE UNIVERSITY OF QUEENSLAND, priority 2003, published 2008).
